As a reminder, the AC50 is the concentration giving half of the maximal activity seen.

Active and inactive are the calls of the source.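 The calls were made as follows: active = parasite count per well reduced by over 3 SD from the mean, with host cell number above 80% of untreated; inactive = the rest.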

The test concerns L. donovani amastigotes in THP-1 macrophages, DAPI imaging, 72 h. As to the kind of experiment: L. donovani intracellular amastigote growth inhibitors, imaging, THP-1 host macrophages, single concentration (AID 977614).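 Also: signal is the parasite per host cell ratio from DAPI stained kinetoplasts and nuclei.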
With `CCN(C[C@@H]1[C@H](c2ccccc2)[C@H](CO)N1C(=O)COC)S(C)(=O)=O`, the AC50 was > 10 µM (inactive).
Consider `Cc1noc(C)c1NC(=O)N(C)C[C@@H]1OCc2cnnn2CCCC(=O)N([C@H](C)CO)C[C@H]1C`, for which the AC50 is > 10 µM (inactive).
Take `CCC(=O)N1[C@H](CO)[C@H](c2ccccc2)[C@@H]1CN(CC)C(=O)c1cccc(F)c1`: the AC50 was > 10 µM (inactive).
For `COCCN(C[C@H]1[C@H](c2ccccc2)[C@@H](CO)N1C(=O)C1CC1)C(C)=O`, the AC50 is > 10 µM (inactive).
On to `O=C(c1ccccn1)N1C[C@@H]2[C@H](c3ccccc31)[C@@H](CO)N2C(=O)C1CCCCC1`, for which the AC50 is > 10 µM (inactive).
As to `C/C=C/c1ccc([C@H]2[C@@H](CO)N(C(C)=O)[C@H]2CN(C(C)=O)C2CCCC2)cc1`, the AC50 was > 10 µM (inactive).
On to `CC(=O)N1[C@@H](CO)[C@@H](c2ccccc2)[C@@H]1CN(CC1CCC1)C(=O)CN(C)C`, for which the AC50 was > 10 µM (inactive).
With `Cc1cccc(S(=O)(=O)N2C[C@@H]3[C@H](c4ccccc42)[C@H](CO)N3CC2CCCC2)c1`, the AC50 was > 10 µM (inactive).
Then `CCC(=O)N1C[C@H]2[C@@H](c3ccccc31)[C@@H](CO)N2Cc1ccc(F)cc1`, with > 10 µM (inactive); and `C[C@H](CO)N1C[C@H](C)[C@@H](CN(C)C(=O)CCC(F)(F)F)OCc2cnnn2CCCC1=O`, with > 10 µM (inactive); and `O=C(C1CCC1)N1C[C@H]2[C@@H](c3ccccc31)[C@H](CO)N2C(=O)Nc1cccc(F)c1`, with > 10 µM (inactive).
For the compound `C[C@H](CO)N1C[C@H](C)[C@H](CN(C)C(=O)Nc2ccccc2C(F)(F)F)OCc2cnnn2CCCC1=O`, the AC50 was > 10 µM (inactive).
`O=C(c1ccccc1F)N1C[C@H]2[C@@H](c3ccccc31)[C@H](CO)N2Cc1ccc2c(c1)OCO2`: the AC50 is > 10 µM (inactive).
With `CCCNC(=O)N1C[C@@H]2[C@H](c3ccccc31)[C@H](CO)N2Cc1cccc(OC)c1`, the AC50 was > 10 µM (inactive).
Consider `COc1ccccc1-c1ccc([C@H]2[C@@H](CO)N[C@@H]2CNC(=O)C2CC2)cc1`, for which the AC50 was > 10 µM (inactive).
Regarding `CNC[C@H]1OCc2cnnn2CCCC(=O)N([C@@H](C)CO)C[C@H]1C`, the AC50 was > 10 µM (inactive).
Then `CN(C[C@H]1[C@@H](c2ccc(C3=CCCC3)cc2)[C@@H](CO)N1CCC(F)(F)F)S(C)(=O)=O`, with > 10 µM (inactive).
`C[C@H](CO)N1C[C@H](C)[C@@H](CN(C)CC2CCCCC2)OCc2cnnn2CCCC1=O`: the AC50 is > 10 µM (inactive).
Then `C[C@@H]1CN([C@H](C)CO)C(=O)CCCn2cc(nn2)CO[C@H]1CN(C)C(=O)Nc1cccc2ccccc12`, with > 10 µM (inactive); and `COc1ccccc1NC(=O)N1C[C@@H]2[C@H](c3ccccc31)[C@@H](CO)N2CC1CCOCC1`, with > 10 µM (inactive).
Take `COCC(=O)N(C)C[C@@H]1[C@@H](c2ccccc2)[C@H](CO)N1C(=O)Cc1ccncc1`: the AC50 is > 10 µM (inactive).
As to `Cc1cccc(S(=O)(=O)N2C[C@H]3[C@@H](c4ccccc42)[C@H](CO)N3C(=O)c2ccccc2)c1`, the AC50 was > 10 µM (inactive).
Regarding `CN1C[C@@H]2[C@H](c3ccccc31)[C@H](CO)N2Cc1ccccc1Cl`, the AC50 was > 10 µM (inactive).
`C[C@H]1CN([C@@H](C)CO)C(=O)CCCn2nncc2CO[C@@H]1CN(C)C(=O)CCC(F)(F)F`: the AC50 was > 10 µM (inactive).
Take `O=C(C1CC1)N1C[C@H]2[C@@H](c3ccccc31)[C@@H](CO)N2C(=O)c1ccccc1`: the AC50 is > 10 µM (inactive).
Take `CCS(=O)(=O)N(C)C[C@@H]1N[C@H](CO)[C@@H]1c1ccc(C2=CCCCC2)cc1`: the AC50 was > 10 µM (inactive).
Then `O=C(C1CCCCC1)N1[C@H](CO)[C@@H]2c3ccccc3NC[C@@H]21`, with > 10 µM (inactive).
As to `CN(C[C@H]1N[C@@H](CO)[C@@H]1c1ccccc1)C(=O)c1ccccn1`, the AC50 is > 10 µM (inactive).
Take `COc1ccccc1CN1[C@H](CO)[C@H]2c3ccccc3N(C(=O)c3cccnc3)C[C@H]21`: the AC50 is > 10 µM (inactive).
Then `C[C@H]1CN([C@@H](C)CO)C(=O)CCCn2nncc2CO[C@@H]1CN(C)Cc1ccccc1C(=O)O`, with > 10 µM (inactive); and `C[C@H]1CN([C@@H](C)CO)C(=O)CCCn2cc(nn2)CO[C@@H]1CN(C)C(=O)c1ccc(N2CCN(C)CC2)cc1`, with > 10 µM (inactive).
For `O=C(NC[C@@H]1[C@@H](c2ccccc2)[C@@H](CO)N1Cc1ccccn1)C1CCCC1`, the AC50 was > 10 µM (inactive).
On to `C[C@@H]1CN([C@H](C)CO)C(=O)CCCn2nncc2CO[C@@H]1CN(C)C(=O)CCC(F)(F)F`, for which the AC50 was > 10 µM (inactive).
For `C[C@H](CO)N1C[C@H](C)[C@H](CN(C)C(=O)c2ccc3ccn(C)c3c2)OCc2cnnn2CCCC1=O`, the AC50 is > 10 µM (inactive).
`C/C=C/c1ccc([C@H]2[C@@H](CNC(C)C)N(C(=O)c3ccccn3)[C@H]2CO)cc1`: the AC50 was > 10 µM (inactive).
`CN1[C@H](CO)[C@@H]2c3ccccc3N(C(=O)C3CCCCC3)C[C@@H]21`: the AC50 is > 10 µM (inactive).
With `CC(=O)N1[C@@H](CO)[C@H](c2ccccc2)[C@@H]1CNC(=O)CN1CCOCC1`, the AC50 was > 10 µM (inactive).
Regarding `CCN(C[C@H]1[C@H](c2ccccc2)[C@H](CO)N1CC1CC1)C(=O)c1ccccn1`, the AC50 is > 10 µM (inactive).
As to `COc1ccc(CN(C)C[C@H]2OCc3cnnn3CCCC(=O)N([C@H](C)CO)C[C@H]2C)cc1`, the AC50 is > 10 µM (inactive).
Consider `C[C@@H]1CN([C@H](C)CO)C(=O)CCCn2nncc2CO[C@@H]1CN(C)S(=O)(=O)c1ccc2c(c1)OCCCO2`, for which the AC50 is > 10 µM (inactive).
Then `O=C(C1CCOCC1)N1C[C@@H]2[C@H](c3ccccc31)[C@@H](CO)N2C(=O)Cc1ccccn1`, with > 10 µM (inactive).
For the compound `CCCNC(=O)N1C[C@H]2[C@@H](c3ccccc31)[C@@H](CO)N2Cc1cccc(OC)c1`, the AC50 is > 10 µM (inactive).
On to `COc1ccccc1CN1[C@H](CO)[C@H]2c3ccccc3N(C(=O)C3CCOCC3)C[C@H]21`, for which the AC50 was > 10 µM (inactive).
With `OC[C@@H]1[C@@H]2c3ccccc3NC[C@@H]2N1CC1CCOCC1`, the AC50 was > 10 µM (inactive).
Take `O=C(CN1CCOCC1)N1[C@@H]2CNc3ccccc3[C@@H]2[C@@H]1CO`: the AC50 was > 10 µM (inactive).
Turning to `CCCNC(=O)N(C)C[C@H]1[C@H](c2ccccc2)[C@@H](CO)N1C(=O)c1ccccc1`, the AC50 is > 10 µM (inactive).
Then `C[C@H]1CN([C@@H](C)CO)C(=O)CCCn2cc(nn2)CO[C@H]1CN(C)C(=O)Nc1cccc2ccccc12`, with > 10 µM (inactive); and `O=C(CN1CCOCC1)N1[C@@H](CO)[C@@H]2c3ccccc3NC[C@@H]21`, with > 10 µM (inactive); and `C[C@@H]1CN([C@@H](C)CO)C(=O)CCCn2nncc2CO[C@@H]1CN(C)C(=O)Nc1cccc(Oc2ccccn2)c1`, with > 10 µM (inactive).
With `C/C=C/c1ccc([C@@H]2[C@H](CO)N(C(C)=O)[C@H]2CNC(=O)c2ccccc2)cc1`, the AC50 is > 10 µM (inactive).
For `O=C(c1ccc2c(c1)OCO2)N1C[C@H]2[C@@H](c3ccccc31)[C@H](CO)N2C(=O)CC1CC1`, the AC50 was > 10 µM (inactive).

For the origin of these results see PubChem BioAssay AID977614 (Broad Institute, 2014).
